# Source: US10391109B2, “Use of zoledronic acid to prepare drug treating fatty liver disease” (NANJING UNIVERSITY, priority 2015, dated 2019)
# Where “and” joins values, the source holds several entries; their conditions need not be identical. Equal entries are not always repeated.
# Key:
# hepatic lipid content = assay: Quantitative analysis of hepatic lipid content in ob/ob mice (Computer Tomography); type: in vivo
# [1] = system: blood alanine transaminase (ALT); assay: Assay for blood ALT level, C57BL/6J mice; type: in vivo; conditions: 50 μg/kg
# Procedure: (§1) After the mice were anaesthetized, blood was collected from the eye socket veins, left at room temperature for 30 min, and centrifuged upon serum precipitation. 10 μl serum was taken for ALT and AST assays with the kit.
# (§2) Similar to Example 1, according to the forgoing general materials and methods, the mice in the HFD group were first administered with zoledronic acid and placebo. The blood alanine transaminase (ALT) and aspartate transaminase (AST) levels in mice after administration were assayed.
# (§3) The HFD group is high fat diet group, the RC group is regular chow group, PBS is placebo, ZOL is zoledronic acid, and the dosage is 50 μg/kg.
# [2] = Body weight, liver weight and epididymal fat pad weight in C57BL/6J mice on regular chow or high fat diet after administration; type: in vivo; conditions: 50 μg/kg
# Source text: The present inventors first used model mice with foodborne non-alcoholic fatty liver, that is, high-fat diet (containing 60% fat) was used for inducing C57BL/6J mice for 12 weeks to generate fatty liver. It was found from the experimental assay that feeding of high fat diet could result in hepatic fat accumulation and degeneration in mice.
# A total of forty 8-week-old C57BL/6J mice were selected, and randomly assigned to 4 groups of 10 mice. The mice were weighted respectively, fed with regular chow (containing 4% fat) and high fat diet (containing 60% fat), and housed for 12 weeks. The mice were weekly weighted and recorded, and curves were plotted. After 12 weeks, the mice with fatty liver fed with regular chow and high fat diet were administered with zoledronic acid and placebo so as to explore the function for relieving fat accumulation. Meanwhile, the resulting changes of physiological indicators for mice were observed, and different body weights and physiological indicators were recorded.
# The RC group is regular chow group, the HFD group is high fat diet group, PBS is placebo, ZOL is zoledronic acid, and the dosage is 50 μg/kg.
# [3] = Body weight, liver weight and epididymal fat pad weight in ob/ob mice after administration; type: in vivo
# Procedure: In order to further verify the lipid reducing effect of zoledronic acid, the experiments of the present invention were carried out in ob/ob mice of hereditary obese mice models with severe non-alcoholic fatty liver mainly characterized by lipid accumulation. A total of thirty 10-week-old ob/ob mice were selected, randomly assigned to 3 groups of 10 mice, and housed with regular chow (containing 4% fat). Ob/ob mice were mutant mice mainly manifested as obesity and related metabolic syndrome. […] Ob/ob mice were administered with zoledronic acid and control placebo. The resulting changes of physiological indicators in mice were observed and different body weights and physiological indicators were recorded.
# [4] = system: hepatic lipid accumulation; assay: H&E staining of liver paraffin sections, ob/ob mice; type: in vivo; conditions: various dosages
# Procedure: (§4) An appropriate amount of the right lobe of liver tissue was taken, fixed in 4% paraformaldehyde for 24-48 h, dehyrdated with graded ethanols, cleared with xylene, infiltrated with wax, embedded in paraffin, and sectioned at a thickness of 5 μm.
# (§5) The sections were de-waxed in xylene for 10 min and 5 min respectively, and then reconstituted in graded ethanol solutions. The sections were subjected to hematoxylin staining for 4 min, and then slightly washed with distilled water. The sections were blued in 0.25% NH3.H2O for 30 s, and then washed with distilled water. The sections were dehydrated with graded ethanols to 95% ethanol, stained for 2-3 s in 0.5% eosin, dehydrated in 100% ethanol, and soaked in xylene for 2 min. Finally, the sections were mounted in Rhamsan gum.
# (§6) Further, the liver structure was shown by H&E staining and the lipid accumulation was shown by Oil Red staining. Injection of zoledronic acid can effectively reduce hepatic lipid accumulation in hereditary obese mice. […] In addition, the use of the zoledronic acid preparation can effectively reduce the body weight of hereditary obese mice, effectively reduce accumulation of epididymal fat pads in mice, and modulate the triglyceride content in body, achieving an effective lipid reducing, lipid lowering, and slimming effect.
# blood ALT = assay: Assay for blood ALT level, ob/ob mice; type: in vivo
# Procedure: as §1
# (§7) Similar to Example 1, according to the forgoing general materials and methods, ob/ob mice were first administered with zoledronic acid preparation and placebo at various dosages. The blood ALT and AST levels in ob/ob mice after treatment were assayed.
# blood AST = assay: Assay for blood AST level, ob/ob mice; type: in vivo
# Procedure: as §1, §7
# [5] = system: hepatic lipid accumulation; assay: Oil Red staining of liver cryosections, ob/ob mice; type: in vivo; conditions: various dosages
# Procedure: An appropriate amount of the right lobe of liver was taken at the same site for laboratory mice in each group, fixed in paraformaldehyde for 2 h, dehyrdated with 30% sucrose for 8-12 h, and embedded in OCT. It was stored in a refrigerator at −70° C. It was sectioned using a Cryostat Microtome at a section thickness of 15 μm.
# The cryosections were slightly dried at room temperature, slightly washed with 60% ethanol, stained in an Oil Red 0 staining solution (60% Oil Red 0 stock plus 40% distilled water) for 10-15 min, differentiated in 60% ethanol, washed, subjected to nuclear staining with hematoxylin for 1 min, washed for 1 min, suck dried, and mounted with glycerin.
# as §6
# [6] = system: hepatic macrovesicular steatosis; assay: H&E staining of liver paraffin sections, high fat diet mice; type: in vivo, C57BL/6J mice; conditions: 50 μg/kg injection
# Procedure: as §4, §5
# (§8) According to the forgoing general materials and methods, the mice in the HFD group were first administered with zoledronic acid and placebo. In this example, zoledronic acid was administered mainly by tail vein injection. The primary site of action of the drug was liver. The injection was performed once every two days. The dosage was 50 μg/kg of zoledronic acid. Tissue triglyceride level assay and H&E staining were performed for mice after administration.
# [7] = system: aspartate transaminase (AST); assay: Assay for blood AST level, C57BL/6J mice; type: in vivo; conditions: 50 μg/kg
# Procedure: as §1, §2, §3
# liver triglyceride [8] = assay: Measurement of TG in liver tissue, ob/ob mice (hereditary non-alcoholic fatty liver); type: in vivo
# Procedure: (§9) About 50 mg of the right lobe of liver in mice was taken, with an accurate weight recorded. It was washed with PBS, placed in 1 ml of a lysis solution and mechanically homogenized. The lysed tissue homogenate was divided into two portions. One portion, 500 μl, was placed in a metal bath at 70° C., heated for 10 min, and centrifuged for 5 min at 2,000×rpm. 1-10 μl was taken for a tissue TG assay with the kit. Another 500 μl was used for a protein concentration assay using the BCA method.
# liver triglyceride [9] = assay: Measurement of TG in liver tissue, C57BL/6J mice (foodborne non-alcoholic fatty liver); type: in vivo; conditions: 50 μg/kg tail vein injection once every two days
# Procedure: as §9, §8, §3
compound,measurement,setting,value
"O=P(O)(O)C(O)(Cn1ccnc1)P(=O)(O)O [ZOL, 1-hydroxy-2-(imidazol-1-yl)-ethylidene-1,1-bisphosphonic acid]",Average decline of lipid content vs PBS,hepatic lipid content; ZOL50 (50 μg/kg),20.4%
same,Lipid content,hepatic lipid content; ZOL50 (50 μg/kg),592.00 ± 201.08 mg/mL
same,Average decline of lipid content vs PBS,hepatic lipid content; ZOL200 (200 μg/kg),34%
same,Lipid content,hepatic lipid content; ZOL200 (200 μg/kg),490.22 ± 211.95 mg/mL
same,ALT IU/L,[1]; HFD group,62.8 ± 14.08 IU/L
same,Average decline of ALT vs PBS,[1]; HFD group,45.2% and 44.7%
same,ALT IU/L,[1]; RC group,39.2 ± 12.09 IU/L
same,Average decline of ALT vs PBS,[1]; RC group,no significant changes
same,Average body weight/g,[2]; HFD group (high fat diet),36.73 ± 3.74 g
same,Average decline of average body weight vs PBS,[2]; HFD group (high fat diet),16%
same,Average decline of average epididymal fat pad weight vs PBS,[2]; HFD group (high fat diet),30%
same,Average decline of average liver weight vs PBS,[2]; HFD group (high fat diet),29%
same,Average epididymal fat pad weight/g,[2]; HFD group (high fat diet),2.33 ± 0.62 g
same,Average liver weight/g,[2]; HFD group (high fat diet),1.41 ± 0.17 g
same,Average body weight/g,[2]; RC group (regular chow),26.72 ± 1.69 g
same,Average decline of average body weight vs PBS,[2]; RC group (regular chow),13%
same,Average decline of average epididymal fat pad weight vs PBS,[2]; RC group (regular chow),39%
same,Average decline of average liver weight vs PBS,[2]; RC group (regular chow),17%
same,Average epididymal fat pad weight/g,[2]; RC group (regular chow),0.46 ± 0.11 g
same,Average liver weight/g,[2]; RC group (regular chow),1.28 ± 0.08 g
same,Average body weight/g,[3]; ZOL50 (50 μg/kg),50.56 ± 2.82 g
same,Average decline of average body weight vs PBS,[3]; ZOL50 (50 μg/kg),7%
same,Average decline of average epididymal fat pad weight vs PBS,[3]; ZOL50 (50 μg/kg),39%
same,Average decline of average liver weight vs PBS,[3]; ZOL50 (50 μg/kg),17%
same,Average epididymal fat pad weight/g,[3]; ZOL50 (50 μg/kg),3.628 ± 0.27 g
same,Average liver weight/g,[3]; ZOL50 (50 μg/kg),3.47 ± 0.58 g
same,Average body weight/g,[3]; ZOL200 (200 μg/kg),45.94 ± 5.16 g
same,Average decline of average body weight vs PBS,[3]; ZOL200 (200 μg/kg),15%
same,Average decline of average epididymal fat pad weight vs PBS,[3]; ZOL200 (200 μg/kg),4%
same,Average decline of average liver weight vs PBS,[3]; ZOL200 (200 μg/kg),46%
same,Average epididymal fat pad weight/g,[3]; ZOL200 (200 μg/kg),3.79 ± 0.30 g
same,Average liver weight/g,[3]; ZOL200 (200 μg/kg),2.26 ± 0.21 g
same,"Liver histology, H&E staining (FIG. 7)",[4],significant decrease in hepatic lipid accumulation
same,ALT IU/L,blood ALT; ZOL50 (50 μg/kg),281.6 ± 142.59 IU/L
same,Average decline of ALT vs PBS,blood ALT; ZOL50 (50 μg/kg),42.5%
same,ALT IU/L,blood ALT; ZOL200 (200 μg/kg),277.4 ± 188.65 IU/L
same,Average decline of ALT vs PBS,blood ALT; ZOL200 (200 μg/kg),43.4%
same,AST IU/L,blood AST; ZOL50 (50 μg/kg),240.25 ± 70.54 IU/L
same,Average decline of AST vs PBS,blood AST; ZOL50 (50 μg/kg),30.4%
same,AST IU/L,blood AST; ZOL200 (200 μg/kg),269.75 ± 71.53 IU/L
same,Average decline of AST vs PBS,blood AST; ZOL200 (200 μg/kg),21.9%
same,"Liver histology, Oil Red staining (FIG. 8)",[5],significant decrease in hepatic lipid accumulation
same,"Liver histology, H&E staining (FIG. 3)",[6],significant remission in hepatic macrovesicular steatosis
same,AST IU/L,[7]; HFD group,76 ± 31.42 IU/L
same,Average decline of AST vs PBS,[7]; HFD group,44.7% and 45.2%
same,AST IU/L,[7]; RC group,52.4 ± 21.20 IU/L
same,Average decline of AST vs PBS,[7]; RC group,no significant changes
same,Average decline of liver triglyceride vs PBS,liver triglyceride [8]; ZOL50 (50 μg/kg),No significant change
same,Liver triglyceride,liver triglyceride [8]; ZOL50 (50 μg/kg),140.88 ± 44.29 mg/g
same,Average decline of liver triglyceride vs PBS,liver triglyceride [8]; ZOL200 (200 μg/kg),34%
same,Liver triglyceride,liver triglyceride [8]; ZOL200 (200 μg/kg),98.49 ± 40.08 mg/g
same,Average decline of liver triglyceride vs PBS,liver triglyceride [9]; HFD group,44.9%
same,Liver triglyceride,liver triglyceride [9]; HFD group,38.18 ± 10.27 mg/g
same,Average decline of liver triglyceride vs PBS,liver triglyceride [9]; RC group,12.5%
same,Liver triglyceride,liver triglyceride [9]; RC group,14.33 ± 6.39 mg/g
